Measurements published in patent USRE46907E1, “Suppression of cancer growth and metastasis using nordihydroguaiaretic acid derivatives with metabolic modulators” (THE JOHNS HOPKINS UNIVERSITY, priority 2008, dated 2018).

How the values were obtained:
[1] = tested on: LNCaP human prostate cancer cells; experiment: MTT cell growth assay in LNCaP cells; type: cell-based; conditions: 24 hrs, M4N 80 μM, Ro 5 μM, Ly 20 μM
Procedure: (§1) Cell Culture Either cell line 4T1 or 67NR was a gift from Dr. Miller (20). The cells were cultured in RPMI1640 medium supplemented with glucose (14 mM), pyruvate (1 mM), penicillin (100 units/ml), streptomycin (100 μg/ml), and fetal bovine serum (10%), buffered with 25 mM HEPES (pH 7.4). LNCaP human prostate cancer cell line was purchased from American Type Culture Collection (Manassas, Va.). The cell line was cultured in RPMI1640 medium supplemented with glucose (14 mM), pyruvate (1 mM), penicillin (100 units/ml), streptomycin (100 μg/ml), and fetal bovine serum (10%). Drugs were dissolved in dimethyl sulfoxide (DMSO) at a suitable concentration so that the final concentration of DMSO in the medium was less than 0.1%.
MTT assay: Cells were incubated in PBS (−) supplemented with 5% fetal calf serum and 0.5 mg/ml MTT, 3-(4,5-Dimethylthiazol-2-yl)-2,5-diphenyltetrazolium bromide (Sigma, Saint Louis, Mo.) for 2 hrs. After the incubation, the cells were dissolved in dimethyl sulfoxide and the color of the solutions was measured by a spectrophotometer at wavelengths of 540 and 690 nm. The values correlated with viable cell numbers were obtained by subtracting the optical density at 690 nm from that, at 540 nm.

[2] = tested on: LNCaP tumors; experiment: Nude mice orthotropically implanted with LNCaP tumors, about eight times tumor volume, treatment from day 3; type: in vivo, mouse
Procedure: Surgical orthotropic implantation of LNCaP tumors: LNCaP cells were grown as described above. Cells growing subconfluently were collected and resuspended into the tissue culture medium without fetal bovine serum and antibiotics. After counting the number of the cells, the cell concentration was adjusted using the same medium. After 20 μl of the medium containing a selected number of cancer cells (about 5×10^7 cells) had been mixed together with the same volume of Matrigel (BD science, Bedford, Mass.), the combined solution was injected into the skin of nude mice. […] The tumor tissue extracted from the skin was excised into pieces of about 2 mm diameter. After nude mice were anesthetized by 2,2,2-Tribromoethanol (Aldrich Chemical Co. Inc., Milwaukee, Wis.), a small incision was made at the abdomen of each mouse and a tumor tissue piece was implanted in the neighbor of the prostate of each mouse. Eight days after the operation, the injection of drugs was initiated, and the drugs were injected intravenously every day for the indicated periods
As in the previous experiment (FIGS. 9 to 13), in this study we administered M4N, Ly, Ro, Etoposide, or Rapamycin to mice intravenously using CPE (25/30) solvent system (87). […] However, in this experiment we implanted about eight times the volume of tumors as in the previous experiments to detect the difference of efficacy of various combination treatments much faster. We started to treat the mice with combination treatments three days after the implantation instead of eight days, considering that the tumor volume is already large at the time of implantation in this experiment. This allows less time for possible metastasis to the transplanted tumors in this experiment than in the previous one.

[3] = cited from earlier work
[4] = daily (1 mg/day) IV injection, nude mice carrying human tumor xenografts; cited from earlier work
[5] = tested on: tumors; conditions: intravenous infusion, cited from earlier work
[6] = tested on: PDK-1/Akt pathway-related proteins; experiment: Western blotting of PDK-1/Akt pathway-related proteins in 4T1 cells; type: cell-based, mouse; conditions: 4T1, 5 hrs after treatment
Procedure: Western blotting: After cells had been grown in […] flasks and treated with reagents, the cells were washed with PBS (−) three times and suspended in RIP A buffer (150 mM NaCl, 50 mM Tris-HCl (pH 8,0), 0.1% SDS, 1% NP40, and 0.5% deoxycholate) supplemented with protease inhibitor cocktail (Calbiochem, San Diego, Calif.). The sample volumes were adjusted by the total protein amount. Protein assay was performed by Bio-Rad Protein Assay (Bio-Rad Laboratories, Inc. Hercules, Calif.). The samples were resolved by the standard SDS-polyacrylamide gel electrophoresis and transferred to nitrocellulose membrane (Amersham Biosciences, Bjorkgatan, Sweden). The membranes were blocked with skim milk, and incubated with primary antibodies at 4° C. overnight and then with secondary antibody conjugated with horse radish peroxidase at room temperature for 2 hrs. The signals were detected by western blot chemiluminescence reagent plus (New England Nuclear Life Science Products, Boston, Mass.).

[7] = tested on: 67NR cells; experiment: TUNEL apoptosis assay in 67NR cells; type: cell-based, mouse; conditions: 48 hr after treatment, M4N 80 μM
Procedure: as §1
(§2) Apoptosis assay: Simple TLTNEL assay was conducted by using TUNEL apoptosis detection kit (Upstate, Temecula, Calif.) with some modification. For the evaluation of the effect of PKCδ wild type and dominant negative vectors on TUNEL-positive cell death, we first transfected 4T1 or 67NR cells with these vectors by effectene (Qiagen, Valencia, Calif.). Wild type PKCδ vector is constructed from wild type PKCδ gene and pEGFP (Promega, Madison, Wis.). Dominant negative PKCδ vector is constructed from PKCδ gene mutated at a 376th amino acid residue (threonine) and pEGFP (Promega, Madison, Wis.) This threonine residue is located in ATP-binding domain of protein kinase Cδ, and therefore essential for any kinase reaction of the protein so that this mutant protein supposedly function as dominant negative. As a control we used pEGFP-N3 vector was used. These vectors contain green fluorescent protein (GFP) gene to be used as a transfection marker. The vectors are kind gifts from Dr. Yuspa (National Institutes of Health, Bethesda, Md.) (88). Twenty four hours after transfection, the cells were treated with M4N, Rottlerin, or Ly294002. Then 24 hrs after this treatment with these reagents, the cells were fixed with 10% formaldehyde in phosphate buffered saline without calcium and magnesium (PBS (−)). The cells were then incubated with rabbit anti-GFP antibody (MBL International, Woburn, Mass.) followed by treatment with anti-rabbit IgG antibody conjugated with fluorescein (Promega, Madison, Wis.). TUNEL staining was conducted by using TUNEL apoptosis detection kit (Upstate, Temecula, Calif.) except for using Streptavidin-Alexa Fluor 568 (Molecular Probes, Eugene, Oreg.) instead of Avidine-Rhodamine contained in the kit. Cell death was evaluated by dividing the number of TUNEL-positive cells among the cells positive with anti-GFP staining by the number of these GFP-positive cells.

[8] = tested on: 4T1 cells; experiment: TUNEL apoptosis assay in 4T1 cells; type: cell-based, mouse; conditions: 4T1, 48 hr after treatment, M4N 80 μM
Procedure: as §1, §2

[9] = tested on: 4T1 cells; experiment: 4T1 tumor-bearing Balb/c mice (life-span, tumor size); type: in vivo, mouse; conditions: 5×10^4 cells, M4N 1 mg/shot, Rottlerin 100 μg/shot, three days a week from day 7
Procedure: Animals: Female Balb/e mice were obtained from Charles River Laboratories (Wilmington, Mass.). M4N and Rottlerin were dissolved into a solvent, CPE (25/30) solvent system supplied by Erimos Pharmaceutical, L.L.C. (Raleigh, N.C.) and injected into mice either intravenously or intraperitoneally, T-cell deficient male nude mice (nu/nu) were obtained from Charles River Laboratories (Wilmington, Mass.). M4N and Ly294002 were dissolved into a solvent, CPE (25/30) solvent system supplied by Erimos Pharmaceutical, L.L.C. (Raleigh, N.C.) and injected into mice intravenously.
Tumor inoculation: Either 4T1 or 67NR cells were grown as described above. Cells growing subconfluently were collected and resuspended into the tissue culture medium minus fetal bovine serum and antibiotics, After counting the number of the cells, the cell concentration was adjusted. Twenty μl of the solution containing a selected number of cancer cells (either 5×10^3 or 5×10^4 cells) was injected into each fat pad of a pair of mammary glands located close to lower limbs. Tumor size was measured by weighing tumors extracted from mouse cadavers.

## COc1ccc(C[C@@H](C)[C@@H](C)Cc2ccc(OC)c(OC)c2)cc1OC [M4N, tetra-O-methyl nordihydroguaiaretic acid]
[1]
  cell growth (MTT): able to reduce cell growth almost as much as a combination treatment
[2]; combination groups at 80 days after tumor implantation
  mice with lung metastasis lesions: 2 out of 4
[2]; mouse, in vivo
  time after implantation by which all mice died: ≤ 33 days
[3]; mouse, in vivo, po
  toxic effects after oral administration: essentially no toxic effects
[3]; oral administration, short term and long term feeding
  M4N concentration retained in mouse organs: ≤ 906 μg/g of tissue
[4]
  M4N level accumulated in blood and tumors: above 1 mM
[5]; Phase I/II
  disease stabilization in patients: long term stabilization of disease in some patients
[5]
  tumor shrinkage in patients: tumor shrinkage has rarely been seen
[6]
  total Akt expression: not changed much
[6]; M4N 80 μM, Desferoxamine 75 or 150 μM
  expression of phosphorylated PDK (Ser241), Akt (Ser473), PRAS40 (Thr246), Raf (Ser259), MEK (Ser217/221): not much effect
[7]
  TUNEL-positive cell death: more cell death in 67NR cells than 4T1 cells
[8]
  TUNEL-positive cell death: did not detect many TUNEL-positive cells
[9]
  life-span of 4T1-bearing mice: didn't extend the life-span
